# “And” between values parts separate entries of the source, which are not always exact repeats. Equal entries are not always repeated.
# What was measured:
# [1] = intact RWM, cited from earlier work
# [2] = Diffusion of 1 mM Rhodamine B across RWM in static Franz diffusion cells, with and without 12.5 μm microperforation; format: in vitro ADME, guinea pig; details: for time to reach 10 μM: expected
# Experimental: The diffusion across guinea pig RWM, with and without microperforation, was developed and tested: cochleae, sparing the RWM, were embedded in 3D-printed acrylic holders using hybrid dental composite and light cured to adapt the round window niche to 3 ml Franz diffusion cells. Perforations were created with 12.5 μm diameter needles and examined with light microscopy. Diffusion of 1 mM Rhodamine B across RWM in static diffusion cells was measured via fluorescence microscopy.
# In order to carry out this analysis, diffusion of RhoB through the RWM was performed on 12 Hartley Strain Guinea Pigs in a modified diffusion cell at room temperature. Franz™ Cell-type diffusion cells (PermeGear, Inc., Hellertown, Pa.) are made of borosilicate glass and have a 5 mm orifice and a 3 ml receptor volume with flat ground joints (FIG. 30). The cell consists of three parts (FIG. 33): donor chamber, membrane, and receptor chamber.
# The donor chamber was filled with 0.3 ml of 1 mM RhoB in PBS meeting the conditions for continuous infinite dosing. Donor chamber was covered with Parafilm® for the duration of the experiment. Drug application surface was determined by size of RWM.
# Guinea pig RWM was embedded in an acrylic holder with dental composites (FIG. 34). The acrylic holder was designed and 3D printed (Objet 24, Stratasys, MN) to allow for adaptation of the round window niche containing RWM to the diffusion cell. Dental composites (Dentsply, Milford, Del.) included primer (Prime & Bond® NT™) and a urethane modified Bis-GMA resin (TPH Spectra™) which were light cured at 20 s intervals with a 470 nm light emitting diode greater than 500 mW/cm^2. The diffusion cell was assembled with two custom expanded Polytetraflurane (PTFE) gaskets, 1.5 mm thick, to prevent leakage from the donor or receptor chambers at the diffusion cell/membrane interface. The acrylic holder was tested for reactivity with RhoB and was inert for >48 hours. The RWM was equilibrated in PBS solution for 30 minutes prior to application of RhoB. Membranes were embedded and equilibrated within 2 hours of euthanasia.
# Microperforations were introduced in the RWM with manual application of a minutien insect pin (Size 000, 12.5 μm diameter tip, 250 μm diameter shaft) under a binocular microscope. All membranes were imaged before and after diffusion study using bright field, phase contrast or fluorescent microscopy and Z-stacking. Imaging was used to confirm the presence or absence of membrane perforation. 60 images at […] intervals were taken and compiled to create one image. ImageJ (Rasband, W. S., Image J, U.S. National Institutes of Health, Bethesda, Md.) was used to calculate the size of the membrane and, if present, perforation.
# The receptor chamber was filled with 3 ml of PBS and continuously stirred at 650 rpm with a cylindrical Teflon® magnetic stirbar to allow rapid mixing of contents without development of a vortex. Sampling port allowed for extraction of fluid samples at various time points to monitor progression of diffusion. The set up and sampling conditions were validated for consistency in the following categories: 1) diffusion cell dimensions, 2) stir bar speed, and 3) sampling frequency, to increase the precision of results across experiments^23.
# Sampling of the receiver chamber was made at 12 predetermined times over 24 hours and analyzed with fluorescent microscopy. At each time point 90 μL was removed using a stretched syringe from the center of the receptor chamber and the volume was replaced with 90 μL of fresh PBS. These diffusion experiments are considered static as solution from the receptor chamber is renewed by removal of a set quantity (90 μL) at sampling times and replacement of this volume with fresh medium. The removed 90 μL was then diluted with 360 μL PBS to reduce the effects of evaporation and maintain concentrations within the acceptable detection range of the microscope. The samples were placed on a tilt table to enhance mixing after dilution. […]
# [3] = cited from earlier work; for D: diffusion coefficient
# [4] = Diffusion of 500 μM rhodamine B across RWM in Franz Cell, with and without manual perforation (10 μm / 100 μm needle); format: in vitro ADME, guinea pig
# Experimental: In another embodiment, a model for measuring diffusion across a guinea pig RWM, was developed and tested. The model is applicable for analysis of the RWM both with and without microperforations. Semicircular canals were removed from the pigs and RWM exposed prior to perforation. In the exemplary embodiment, the cochlea, sparing the RWM, was embedded in a 3D-printed acrylic holder using hybrid dental composite and light cured to adapt the round window niche to a 3 ml Franz™ Cell. The Franz™ Cell is a widely recognized standardized method for studying transdermal drug delivery. Microperforations were created with a 10 μm diameter needle (as shown in FIG. 32) and examined with fluorescent light microscopy (FSX-100, as shown in FIG. 31) as a function of time exposure.
# In the exemplary embodiment show in FIGS. 33-34, a Franz Cell was customized in accordance with the present disclosure to include an adapter to allow analysis of a very small membrane in the Franz Cell. The adaptor depicted in FIGS. 33B and 34 was manufactured with a 3-dimensional printer, though alternative manufacturing techniques (and suitable materials) are contemplated to be within the scope of the disclosure. The adaptor includes a downwardly extending protrusion or lip (see reference numerals “A” and “B” in FIG. 33) which are configured to engage the Receptor portion of the Franz Cell.
# Similarly, FIGS. 37A-C illustrate various Z-stacked perforation images which were compiled from 60 images taken at 5 μm intervals of RWM with perforation: A) bright field microscopy; B) bright field microscopy post diffusion with RhoB; C) Fluorescent microscopy
# Manual perforations made with 10 μm needle tip produce an elliptical hole (see arrow in FIG. 38) with axes 30 μm (26-34)×47 μm (44-50). In one example, a manual perforation with 100 μm needle tip created an elliptical tear in the membrane Measuring […]×460 μm, as shown in FIG. 38 (in which the dot “D” indicates tip size).
# [5] = Permeability of one pore estimated from diffusion coefficient and membrane thickness (P=D/h); 1% area perforation improvement; details: for Ppore: D/h, membrane thickness 10 μm, guinea pig
# Description: From Fick's first law, diffusion is described by J=−D∇ϕ (1) where J is diffusion flux in mol/m^2*s, D is the diffusion coefficient in m^2/s, and ϕ is the concentration in mol/l. Then from a one-dimensional simplification of the pore
# [formula] This can be further simplified with the gradient is uniform across the pore to obtain
# [formula] where x is the axis through the pore in m, cx is the concentration at both ends in mol/l, and h is the RWM thickness in m. Then from the definition of flux
# [formula] the permeability of the membrane is Flux=−PA(c1−c0) (5) where P=D/h is the permeability in m/s.
# Thus the permeability of one pore can be estimated from the diffusion coefficient and the thickness of the membrane (10 μm, guinea pig).
compound,measurement,setting,value
C[C@@H]1C[C@H]2[C@@H]3CCC4=CC(=O)C=C[C@]4(C)[C@@]3(F)[C@@H](O)C[C@]2(C)[C@@]1(O)C(=O)CO [Dexamethasone],PRWM,[1],5.0~35.0 × 10^−8 m/s
CCN(CC)c1ccc2c(-c3ccccc3C(=O)O)c3ccc(=[N+](CC)CC)cc-3oc2c1.[Cl-] [Rhodamine B],Permeability KP RWM,[2],0.51 ± 0.41 10^−8 ms^−1
same,permeability across the perforation itself,[2],8.3±2.2×10^−5 m/s
same,permeability across the perforation relative to intact membrane,[2],"16,000 times"
same,permeability coefficient of the RWM with microperforations,[2],18.1±6.1×10^−8 m/s
same,time to reach 10 μM,[2]; 3×3 array of perforations,30 min
same,time to diffuse 10 μM across the RWM,[2]; intact membrane,7 days
same,increase in permeability / enhancement in diffusion with microperforation vs intact RWM,"[2]; single 12.5 μm tip microperforation, 0.22% of membrane",35 times
same,time to diffuse 10 μM across the RWM,[2]; single microperforation of approximately 2.5×10^−3 mm^2,under 5 hours
same,time to reach 10 μM,[2]; three perforations,90 min
same,Diffusion Coefficient in water at 25° C. (298 K),[3],4.5 ± 0.4 10^−6 cm^2s^−1 and 4.27 ± 0.04 10^−6 cm^2s^−1
same,enhancement in diffusion,"[4]; 10 μm needle, 30 × 47 μm perforation",160 ×
same,enhancement in diffusion,"[4]; 100 μm needle, 240 × 460 μm elliptical perforation",3500 ×
same,Microperforated KP,[4]; guinea pig,3.21×10^−6 m/s
same,time required to reach 250 μM,[4]; membranes with a small microperforation,8.5 days
same,time required to reach 250 μM,"[4]; unperforated membrane, 250 μM = ½ applied concentration",3.7 years
same,predicted value of pore permeability based on the diffusion coefficient,[5]; not told,4×10^−5 m/s
C[N+](C)(C)c1ccccc1 [TMPA],D,[3],1.01 × 10^−9 m2/s
same,permeability of the RWM,[1]; guinea pig model,1.9×10^−8 m/s
same,PRWM,[1],1.9 × 10^−8 m/s
same,Ppore,[5],1.01 × 10^−4 m/s
Gentamicin,D,[3],6.82 × 10^−10 m2/s
same,Diffusion Coefficient in water at 25° C. (298 K),[3],6.82 10^−6 cm^2s^−1
same,PRWM,[1],3.5 ± 4.6 × 10^−8 m/s
same,Ppore,[5],6.82 × 10^−5 m/s

# Source: patent US10821276B2, “System and method to locally deliver therapeutic agent to inner ear” (The Trustees of Columbia University in the City of New York, priority 2012, dated 2020)
